Experimental data as given in patent US11802120B2, “Fused cyclic urea derivatives as CRHR2 antagonist” (RaQualia Pharma Inc., priority 2018, dated 2023).

Target: T1, human CRHR2-alpha (Homo sapiens, UniProt Q13324)
T1 sequence (Q13324 1-411): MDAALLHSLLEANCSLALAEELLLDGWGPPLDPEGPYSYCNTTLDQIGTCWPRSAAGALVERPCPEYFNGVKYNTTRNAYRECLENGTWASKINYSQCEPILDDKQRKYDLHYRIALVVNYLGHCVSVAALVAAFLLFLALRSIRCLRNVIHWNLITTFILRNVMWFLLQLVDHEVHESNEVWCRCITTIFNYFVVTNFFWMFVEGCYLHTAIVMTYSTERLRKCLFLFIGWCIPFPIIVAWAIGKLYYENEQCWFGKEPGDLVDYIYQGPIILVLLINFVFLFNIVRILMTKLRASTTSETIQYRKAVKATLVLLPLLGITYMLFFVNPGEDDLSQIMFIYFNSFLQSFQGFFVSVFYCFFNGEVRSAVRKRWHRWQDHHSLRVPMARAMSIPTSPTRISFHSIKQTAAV
Assay: cAMP functional assay for human CRHR2 (LANCE Ultra cAMP, TR-FRET)
Type: cell-based
Settings: CHO-K1 cells expressing human CRHR2-alpha, agonist human urocortin2 at EC80, cAMP; read-out: IC50 against CRHR2
Outline: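 IC50 values derive from percent inhibition of EC80 agonist-stimulated cAMP in CHO-K1 transfectants, with 0.5 mM IBMX present; the CRHR2 line was stimulated by human urocortin2 and the CRHR1 line by CRF.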

| SMILES | IC50 [nM] |
| --- | --- |
| CNc1ncc(-n2c(=O)n(C[C@H]3CC[C@H](NC(=O)c4cc(Cl)cnc4C(F)F)CC3)c3ccccc32)cc1C [Example 462, 5-chloro-2-(difluoromethyl)-N-((1r,4r)-4-((3-(5-methyl-6-(methylamino)pyridin-3-yl)-2-oxo-2,3-dihydro-1H-benzo [d]imidazol-1-yl)methyl)cyclo-hexyl)nicotinamide] | < 300 |
| O=C(N[C@H]1CC[C@H](Cn2c(=O)n(-c3ccc(NCC(F)(F)F)nc3)c3ccccc32)CC1)c1cc(Cl)cnc1C(F)F [Example 463, 5-chloro-2-(difluoromethyl)-N-((1r,4r)-4-((2-oxo-3-(6-((2,2,2-trifluoroethyl)amino)pyridin-3-yl)-2,3-dihydro-1H-benzo[d]imidazol-1-yl)methyl)cyclohexyl)nicotinamide] | < 300 |
| O=C(N[C@H]1CC[C@H](Cn2c(=O)n(-c3ccc(NCC(F)F)nc3)c3ccccc32)CC1)c1cc(Cl)cnc1C(F)F [Example 464, 5-chloro-N-((1r,4r)-4-((3-(6-((2,2-difluoroethyl)amino)pyridin-3-yl)-2-oxo-2,3-dihydro-1H-benzo[d]imidazol-1-yl)methyl)cyclohexyl)-2-(difluoromethyl)nicotinamide] | < 300 |
| CNc1cc(C)c(-n2c(=O)n(C[C@H]3CC[C@H](NC(=O)c4cc(Cl)cnc4C(F)F)CC3)c3ccccc32)cn1 [Example 465, 5-chloro-2-(difluoromethyl)-N-((1r,4r)-4-((3-(4-methyl-6-(methylamino)pyridin-3-yl)-2-oxo-2,3-dihydro-1H-benzo[d]imidazol-1-yl)methyl)cyclohexyl)nicotinamide] | < 300 |
| C[C@@H](O)COc1ccc(-n2c(=O)n(C[C@H]3CC[C@H](NC(=O)c4cc(Cl)cnc4C(F)(F)F)CC3)c3ccccc32)cn1 [Example 466, 5-chloro-N-((1R,4r)-4-((3-(6-((R)-2-hydroxypropoxy)pyridin-3-yl)-2-oxo-2,3-dihydro-1H-benzo[d]imidazol-1-yl)methyl)cyclohexyl)-2-(trifluoromethyl)nicotinamide] | < 300 |
| C[C@H](O)COc1ccc(-n2c(=O)n(C[C@H]3CC[C@H](NC(=O)c4cc(Cl)cnc4C(F)(F)F)CC3)c3ccccc32)cn1 [Example 467, 5-chloro-N-((1S,4r)-4-((3-(6-((S)-2-hydroxypropoxy)pyridin-3-yl)-2-oxo-2,3-dihydro-1H-benzo[d]imidazol-1-yl)methyl)cyclohexyl)-2-(trifluoromethyl)nicotinamide] | < 300 |
| Cc1ncc(Cl)cc1C(=O)N[C@H]1CC[C@H](Cn2c(=O)n(-c3ccc(-n4ccnc4)cc3)c3ccccc32)CC1 [Example 468, N-((1r,4r)-4-((3-(4-(1H-imidazol-1-yl)phenyl)-2-oxo-2,3-dihydro-1H-benzo[d]imidazol-1-yl)methyl)cyclo-hexyl)-5-chloro-2-methyl-nicotinamide] | < 300 |
| Cc1ncc(Cl)cc1C(=O)N[C@H]1CC[C@H](Cn2c(=O)n(-c3ccc(-c4ccn[nH]4)cc3)c3ccccc32)CC1 [Example 469, N-((1r,4r)-4-((3-(4-(1H-pyrazol-5-yl)phenyl)-2-oxo-2,3-dihydro-1H-benzo[d]imidazol-1-yl)methyl)cyclo-hexyl)-5-chloro-2-methylnicotinamide] | < 300 |
| Cc1ncc(Cl)cc1C(=O)N[C@H]1CC[C@H](Cn2c(=O)n(-c3ccc(-n4ccnn4)cc3)c3ccccc32)CC1 [Example 470, N-((1r,4r)-4-((3-(4-(1H-1,2,3-triazol-1-yl)phenyl)-2-oxo-2,3-dihydro-1H-benzo[d]imidazol-1-yl)methyl)cyclohexyl)-5-chloro-2-methylnicotinamide] | < 300 |
| Cc1ncc(Cl)cc1C(=O)N[C@H]1CC[C@H](Cn2c(=O)n(-c3ccc(-n4cccn4)cc3)c3ccccc32)CC1 [Example 471, N-((1r,4r)-4-((3-(4-(1H-pyrazol-1-yl)phenyl)-2-oxo-2,3-dihydro-1H-benzo[d]imidazol-1-yl)methyl)cyclohexyl)-5-chloro-2-methylnicotinamide] | < 300 |
| Cc1c[nH]c2ncc(-n3c(=O)n(C[C@H]4CC[C@H](NC(=O)c5cc(Cl)cnc5C(F)F)CC4)c4cccnc43)cc12 [Example 474, 5-chloro-2-(difluoromethyl)-N-((1r,4r)-4-((3-(3-methyl-1H-pyrrolo[2,3-b]pyridin-5-yl)-2-oxo-2,3-dihydro-1H-imidazo[4,5-b]pyridin-1-yl)methyl)cyclohexyl)nicotinamide] | < 300 |
| O=C(N[C@H]1CC[C@H](Cn2c(=O)n(-c3cncc(N4CCOCC4)c3)c3ccccc32)CC1)c1cc(Cl)cnc1C(F)F [Example 476, 5-chloro-2-(difluoromethyl)-N-((1r,4r)-4-((3-(5-morpholino-pyridin-3-yl)-2-oxo-2,3-dihydro-1H-benzo[d]imidazol-1-yl)methyl)cyclohexyl) nicotinamide] | < 300 |
| COCCOc1ccc(-n2c(=O)n(C[C@H]3CC[C@H](NC(=O)c4cc(Cl)cnc4C(F)F)CC3)c3ccccc32)cn1 [Example 477, 5-chloro-2-(difluoromethyl)-N-((1r,4r)-4-((3-(6-(2-methoxy-ethoxy)pyridin-3-yl)-2-oxo-2,3-dihydro-1H-benzo[d]imidazol-1-yl)methyl)cyclohexyl) nicotinamide] | < 300 |
| O=C(N[C@H]1CC[C@H](Cn2c(=O)n(-c3ccc(OC4COC4)nc3)c3ccccc32)CC1)c1cc(Cl)cnc1C(F)F [Example 478, 5-chloro-2-(difluoromethyl)-N-((1r,4r)-4-((3-(6-(oxetan-3-yloxy)pyridin-3-yl)-2-oxo-2,3-dihydro-1H-benzo[d]imidazol-1-yl)methyl)cyclohexyl)nicotinamide] | < 300 |
| CCC(=O)Nc1ccc(-n2c(=O)n(C[C@H]3CC[C@H](NC(=O)c4cc(Cl)cnc4C)CC3)c3ccccc32)cn1 [Example 479, 5-chloro-2-methyl-N-((1r,4r)-4-((2-oxo-3-(6-propionamidopyridin-3-yl)-2,3-dihydro-1H-benzo[d]imidazol-1-yl)methyl)cyclohexyl)nicotinamide] | < 300 |
| Cc1ncc(Cl)cc1C(=O)N[C@H]1CC[C@H](Cn2c(=O)n(-c3ccc(NCCC(F)F)nc3)c3ccccc32)CC1 [Example 480, 5-chloro-N-((1r,4r)-4-((3-(6-((3,3-difluoropropyl)amino)pyridin-3-yl)-2-oxo-2,3-dihydro-1H-benzo[d]imidazol-1-yl)methyl)cyclo-hexyl)-2-methylnicotinamide] | < 300 |

The remaining lines, values ahead:

| IC50 [nM] | SMILES |
| --- | --- |
| < 300 | O=C(N[C@H]1CC[C@H](Cn2c(=O)n(-c3ccc(NC4COC4)nc3)c3ccccc32)CC1)c1cc(Cl)cnc1C(F)F [Example 481, 5-chloro-2-(difluoromethyl)-N-((1r,4r)-4-((3-(6-(oxetan-3-ylamino)pyridin-3-yl)-2-oxo-2,3-dihydro-1H-benzo [d]imidazol-1-yl)methyl)cyclohexyl)nicotinamide] |
| < 300 | Cc1ncc(Cl)cc1C(=O)N[C@H]1CC[C@H](Cn2c(=O)n(-c3cncc(N4CCCC4)c3)c3ccccc32)CC1 [Example 482, 5-chloro-2-methyl-N-((1r,4r)-4-((2-oxo-3-(5-(pyrrolidin-1-yl)pyridin-3-yl)-2,3-dihydro-1H-benzo[d]imidazol-1-yl)methyl)cyclohexyl)nicotinamide] |
| < 300 | Cc1ncc(Cl)cc1C(=O)N[C@H]1CC[C@H](Cn2c(=O)n(-c3cncc(N(C)C)c3)c3ccccc32)CC1 [Example 483, 5-chloro-N-((1r,4r)-4-((3-(5-(dimethylamino)pyridin-3-yl)-2-oxo-2,3-dihydro-1H-benzo [d]imidazol-1-yl)methyl)cyclo-hexyl)-2-methylnicotinamide] |
| < 300 | COc1cncc(-n2c(=O)n(C[C@H]3CC[C@H](NC(=O)c4cc(Cl)cnc4C)CC3)c3ccccc32)c1 [Example 484, 5-chloro-N-((1r,4r)-4-((3-(5-methoxypyridin-3-yl)-2-oxo-2,3-dihydro-1H-benzo[d]imidazol-1-yl)methyl)cyclo-hexyl)-2-methylnicotinamide] |
| < 300 | Cc1ncc(Cl)cc1C(=O)N[C@H]1CC[C@H](Cn2c(=O)n(-c3cncc(-c4cnco4)c3)c3ccccc32)CC1 [Example 485, 5-chloro-2-methyl-N-((1r,4r)-4-((3-(5-(oxazol-5-yl)pyridin-3-yl)-2-oxo-2,3-dihydro-1H-benzo[d]imidazol-1-yl)methyl)cyclohexyl)nicotinamide] |
| < 300 | COCCOc1cncc(-n2c(=O)n(C[C@H]3CC[C@H](NC(=O)c4cc(Cl)cnc4C)CC3)c3ccccc32)c1 [Example 486, 5-chloro-N-((1r,4r)-4-((3-(5-(2-methoxyethoxy)pyridin-3-yl)-2-oxo-2,3-dihydro-1H-benzo[d]imidazol-1-yl)methyl)cyclo-hexyl)-2-methylnicotinamide] |
| < 300 | CNc1cncc(-n2c(=O)n(C[C@H]3CC[C@H](NC(=O)c4cc(Cl)cnc4C)CC3)c3ccccc32)c1 [Example 487, 5-chloro-2-methyl-N-((1r,4r)-4-((3-(5-(methylamino)pyridin-3-yl)-2-oxo-2,3-dihydro-1H-benzo[d]imidazol-1-yl)methyl)cyclohexyl)nicotinamide] |
| < 300 | Cc1ncc(Cl)cc1C(=O)N[C@H]1CC[C@H](Cn2c(=O)n(-c3cccc(-c4cnco4)c3)c3ccccc32)CC1 [Example 488, 5-chloro-2-methyl-N-((1r,4r)-4-((3-(3-(oxazol-5-yl)phenyl)-2-oxo-2,3-dihydro-1H-benzo[d]imidazol-1-yl)methyl)cyclo-hexyl)nicotinamide] |
